Source: patent US12052991B2, “Substituted pyridinyloxybenzenes and salts thereof and use thereof as herbicidal agents” (Bayer Aktiengesellschaft, priority 2018, dated 2024)

Assays:
Assay type in all cases: in vivo
Poa annua (POAAN) = experiment: Herbicidal early post-emergence action (Table A3); settings: 1900 g/ha; scored visually 9 to 12 days after treatment; 100% = plants have died, 0% = like control plants
Procedure: (§1) Seeds of monocotyledonous and dicotyledonous weed plants were placed in 96-well microtiter plates in quartz sand and grown in a climatized chamber under controlled growth conditions. 5 to 7 days after sowing, the test plants were treated at the cotyledon stage. The compounds according to the invention, formulated in the form of emulsion concentrates (EC), were applied with a water application rate of the equivalent of 2200 liters per hectare. After the test plants had been left to stand in the climatized chamber for 9 to 12 days under optimum growth conditions, the effect of the preparations was scored visually in comparison to untreated controls. For example, 100% activity=the plants have died, 0% activity=like control plants. Tables A1 to A8 below show the effects of selected compounds of the general formula (I) according to Table 1 on various harmful plants and an application rate corresponding to 1900 g/ha, which were obtained by the experimental procedure mentioned above.

[1] = tested on: harmful plants AGSTE, DIPTE, LOLPE, MATCH, POAAN, SETVI, STEME and VERPE; experiment: Herbicidal early post-emergence action, summary of Tables A1-A8; settings: application rate of 1900 g of active ingredient per hectare; summary in words
Procedure: as §1, with “plants.” for “plants. Tables A1 to A8 below show the effects of selected compounds of the general formula (I) according to Table 1 on various harmful plants and an application rate corresponding to 1900 g/ha, which were obtained by the experimental procedure mentioned above.”
Tables A1 to A8 below show the effects of selected compounds of the general formula (I) according to Table 1 on various harmful plants and an application rate corresponding to 1900 g/ha, which were obtained by the experimental procedure mentioned above.
As the results of Tables A1-A8 show, compounds no.

Agrostis tenuis (AGSTE) = experiment: Herbicidal early post-emergence action (Table A1); settings: 1900 g/ha; scored visually 9 to 12 days after treatment; 100% = plants have died, 0% = like control plants
Procedure: as §1

| SMILES | Early post-emergence effect against Poa annua (POAAN) (Poa annua (POAAN)) [%] | herbicidal activity against the harmful plants of Tables A1-A8 in early post-emergence treatment [1] | Early post-emergence effect against Agrostis tenuis (AGSTE) (Agrostis tenuis (AGSTE)) [%] |
| --- | --- | --- | --- |
| COc1ccc(-c2cc(C(F)F)no2)c(Oc2ncc(Cl)cc2F)c1 [Example 1-37] | 80 | very good herbicidal activity |  |
| Fc1ccc(Oc2cccc(F)c2-c2cc(C(F)F)no2)nc1 [Example 1-41] | 100 | very good herbicidal activity | 80 |
| CSc1cccc(Oc2ccc(Cl)cn2)c1-c1cc(C(F)F)no1 [Example 1-56] | 100 | very good herbicidal activity | 100 |
| Fc1cc(Cl)cnc1Oc1ccccc1-c1ccc(C(F)(F)F)cn1 [Example 1-66] | 80 | very good herbicidal activity | 100 |
| Fc1cc(Cl)cnc1Oc1ccccc1-c1cc(C(F)(F)F)ccn1 [Example 1-69] | 100 | very good herbicidal activity | 100 |
| FC(F)(F)c1ccnc(-c2ccccc2Oc2ccc(Cl)cn2)c1 [Example 1-70] | 100 | very good herbicidal activity | 100 |
